# Laboratory results: patent publication US20030060508A1, “Polyunsaturated fatty acid fractions of Nigella sativa L. seeds” (priority 2000, published 2003)
# Key:
# Corynebacterium pyogenes = assay: Comparative antibacterial activity with ampicillin, bore method; format: cell-based; settings: 1 μg/mL, read-out: Diameter of Zone of Inhibition
# Protocol: (§1) […] The values are the average of three separate experiments. The anti-bacterial activity of the tested isolates was detected in vitro using the bore method. The nutrient agar medium containing one bacterial strain was poured into sterilized petri-dishes, each 20×120 mm, then left for 10 minutes to dry. Using the borer No. 5, a central bore was made in each plate, then another 4 were arranged it. The effect of different concentrations of the tested isolates on certain microorganisms was tested in 2 plates.
# (§2) The comparative antibacterial activity of ampicillin and the Nigella sativa L. polyunsaturated fatty acid fraction against certain bacterial strains (Streptococcus pyogenes, Corynebacterium pyogenes and Salmonella typhi murium) was preformed in vitro using the bore method as described by Cooper and Woodman (1964) as previously described. The effect of ampicillin (1 μg/mL) and the Nigella sativa L. polyunsaturated fatty acid fraction (at 1 mg/ml) on the previously mentioned bacteria was tested.
# Salmonella typhi murium = assay: as above; format: cell-based; settings: Salmonella enterica, read-out: Diameter of Zone of Inhibition
# Protocol: as §1, §2
# Streptococcus pyogenes = assay: as above; format: cell-based; settings: 1 μg/mL, read-out: Diameter of Zone of Inhibition
# Protocol: as §1, §2
# [1] = tested on: writhing induced by parabenzoquinone; assay: analgesic activity, writhing method; format: in vivo, mice; settings: 5.0 mg/100 g.b.w.
# Protocol: The analgesic activity of the Nigella sativa L. polyunsaturated fatty acid fraction was studied using the writhing method described by Okun et al. (1963). Thirty mature mice of both sexes weighing from 20 to 25 gm were divided into 3 groups of 10 mice each. The first group served as a control and the second group served as a standard (treated with paracetamol in a dose of 5 mg/100 gm body weight). The third group was injected subcutaneously with the Nigella sativa L. polyunsaturated fatty acid fraction. After 30 minutes, mice were injected intraperitoneally with 0.25 ml of a solution of parabenziquinone (0.2 mg/ml in saline). […] Animals devoid of writhing in each group were recorded and the analgesic potencies of paracetamol and the Nigella sativa L. polyunsaturated fatty acid fraction were determined as percent protection against writhing.
# rat paw formalin edema = assay: anti-inflammatory activity, rat paw formalin edema; format: in vivo, rats; settings: 3 mg/100 g.b.w. intraperitoneally
# Protocol: The anti-inflammatory activity of the Nigella sativa L. polyunsaturated fatty acid fraction was carried out in rats using a modification of rat paw formalin edema as described by Domemjoz et al. (1965).
# Fifteen mature albino rats of both sexes weighing 150-200 gm were divided into 3 groups of 5 rats each. At the beginning of the experiment, the thickness of the rat left hind paw was measured using a Vernier caliper. Thereafter, rats of the first group were kept as a control and those of the second group (standard) were injected intraperitoneally with phenylbutazone in a dose of 3 mg/100 gm body weight. Rats of the third group were injected with the Nigella sativa L. polyunsaturated fatty acid fraction. After 30 minutes, inflammation was induced by subcutaneous injection of 0.1 mL of 6% solution of formalin in normal saline into the left hind paw.
# The anti-inflammatory effect of the Nigella sativa L. polyunsaturated fatty acid fraction was estimated by comparing the magnitude of the paw swelling in the pretreated animals with that of the control animals. Measurement of rat paw thickness was carried out at hourly intervals for a period of 3 hours.
# [2] = tested on: histamine-induced bronchospasm in guinea pigs; assay: protection from histamine-induced bronchospasm; format: in vivo; settings: 239 mg/kg i.p.
# Protocol: The anti-histamine effects of the Nigella sativa L. polyunsaturated fatty acid fraction on induced bronchospasm in guinea pigs was evaluated using the methods described by Armitage et al, Brit. J Pharmacol., 16:59-76 (1961). Willis, J. Pharm. Pharmacol., 21:126 (1969).
# The prophylactic anti-allergic effects were evaluated in guinea pigs (300-400 grams). The animals were divided into 5 groups (10 animals each) and treated i.p. as follows: (1) animals treated with saline (control); (2) animals treated with diphenydramine (239 mg/kg/day); (3) animals treated with 50 mg/kg polyunsaturated fatty acid fraction; (4) animals treated with 100 mg/kg polyunsaturated fatty acid fraction; and (5) animals treated with 150 mg/kg polyunsaturated fatty acid fraction.
# Animals were exposed 30 minutes after their i.p. injection of diphenydramine and polyunsaturated fatty acid fraction to histamine aerosol (1%) for 3 minutes. Bronchospasm and loss of rightening after 30, 60 and 90 minutes was calculated according to the following formula (Dawson and Sweatman, Br. J. Pharmacol., 71:387-398 (1980)): [formula]
# [3] = tested on: ova albumin inhalation in sensitized guinea pigs; assay: time to onset of tachypnea in sensitized animals; format: in vivo; settings: 50 microg/kg, treated for 21 days
# Protocol: The second protocol involved sensitized animals. Animals were sensitized by injecting ova albumin in two doses 100 mg. each (S.C. and I.P., simultaneously). Animals were resensitized 15 days later. Guinea pigs were divided into three groups with 8 animals per group. The first group received a saline injection to serve as negative control. The second group received ketotifen which is the standard treatment to serve as positive control. The third group received 200 mg/kg each of Nigella sativa L. polyunsaturated fatty acid fraction. Animals in all groups were treated for 21 days following which they were exposed to ova albumin inhalation and time to onset of tachypnea was recorded as shown in the table below (*Statistically significant from the control group (P<0.05)).
# [4] = tested on: guinea pigs exposed to histamine aerosol (0.25%); assay: prophylactic anti-asthmatic effect, preconvulsive time; format: in vivo; settings: 5 microg/kg, treated for 21 days
# Protocol: This example explains in vivo studies to evaluate the prophylactic (protective) anti-asthmatic effect of the Nigella sativa L. polyunsaturated fatty acid fraction. The prophylactic antiasthmatic effect was evaluated in vivo by measurement of the preconvulsive time in guinea pigs exposed to histamine aerosol (0.25%).
# Guinea pigs were divided into three groups with 8 animals per group. The first group received a saline injection to serve as negative control. The second group received ketotifen, which is the standard treatment to serve as positive control. The third group received 200 mg/kg of the Nigella sativa L. polyunsaturated fatty acid fraction.
# Animals in all groups were treated for 21 days, after which they were exposed to histamine (0.25%) aerosol and the preconvulsive time was recorded.
smiles,measurement,setting,value
"CC1(C)S[C@@H]2[C@H](NC(=O)[C@H](N)c3ccccc3)C(=O)N2[C@H]1C(=O)O [Ampicillin, ampicillin]",zone of inhibition at 1 µg/mL,Corynebacterium pyogenes,44.7 ± 0.8 mm
same,zone of inhibition at 1 µg/mL,Salmonella typhi murium,13.1 ± 0.2 mm
same,zone of inhibition at 1 µg/mL,Streptococcus pyogenes,26.7 ± 0.3 mm
"CC(=O)Nc1ccc(O)cc1 [Paracetamol, paracetamol]","% Protection, 120 minutes",[1],20%
same,% protection 30 minutes,[1],100%
same,% protection 60 minutes,[1],60%
same,% protection 90 minutes,[1],40%
"CCCCC1C(=O)N(c2ccccc2)N(c2ccccc2)C1=O [Phenylbutazone, phenylbutazone]","Rat Paw Thickness, 1 Hour",rat paw formalin edema,5.85 ± 0.15 mm
same,"Rat Paw Thickness, 2 Hours",rat paw formalin edema,5.71 ± 0.09 mm
same,"Rat Paw Thickness, 3 Hours",rat paw formalin edema,5.82 ± 0.05 mm
CN(C)CCOC(c1ccccc1)c1ccccc1 [diphenhydramine],% protection 30 minutes,[2],100%
same,% protection 60 minutes,[2],100%
same,% protection 90 minutes,[2],90%
CN1CCC(=C2c3ccccc3CC(=O)c3sccc32)CC1 [ketotifen],% of Prophylaxis,[3],44.4%
same,% of Prophylaxis (Protection),[4],82.85%
